Marks after values point to notes of the source that are not given here.
Assays:
1X-Ab = assay: Competitive antigen ELISA, cross-reactivity of 1X-Ab; type: binding, rabbit; details: for % Cross-Reaction 1X-Ab: competitive antigen ELISA, 0 = absence of inhibition or inhibition no higher than 40% at highest concentration tested (5×10^−3 M)
Protocol: (§1) Buffers and water without additives are filtered through millipore filters and kept for 1 week. BSA, antibodies, Tween™ 20 and horse radish peroxidase conjugates are added to these buffers and water just prior to use. Urine samples are usually collected 4 hours after drinking a cup of coffee (instant or brewed with approximately 100 mg of caffeine per cup) and stored at −80° C. The urine samples are diluted 10 times with sodium phosphate buffer (620 mosm, pH 7.50) and are subsequently diluted with water to give concentrations of AAMU and 1X no higher than 3×10^−6 M in the ELISA. All the pipettings are done with an eight-channel pipette, except those of the antibody and sample solutions. Starting with the last well, 100 μL of a carbonate buffer (100 mM, pH 9.6) containing 2.5 μg mL-^1 antibodies are added to each well. After 90 min. at room temperature, the wells are washed three times with […] of TPB: isotonic sodium phosphate buffer (310 mosm, pH 7.50) containing 0.05% Tween™ 20.
(§2) After the initial wash, unoccupied sites are blocked by incubation for 90 min. at room temperature with 100 μL TBP containing 3% BSA. The wells are washed four times with 100 μL TPB. The washing is followed by additions of 50 μL of 12 mg mL^−1 AAMU-HRP or 1X-HRP conjugate in 2×TPB containing 2% BSA, and 50 μL of either water, standard (13 standards; AAMU or 1X, 2×10^−4 to 2×10^−8 M) or sample in duplicate. The microplate is gently shaken with an orbital shaker at room temperature for 3-4 hours. The wells are washed three times with 100 μL TPB containing 1% BSA and three times with water containing 0.05% Tween™ 20. To the washed plate is added 150 μL of a substrate buffer composed of citric acid (25 mM) and sodium phosphate dibasic buffer (50 mM, pH 5.0) containing 0.06% hydrogen peroxide and 0.04% o-phenylenediamine hydrochloride.
(§3) Buffers and water without additives were filtered through millipore filters and kept for 1 week. BSA, antibodies, Tween™ 20 and horse radish peroxidase conjugates were added to these buffers and water just prior to use. Urine samples were usually collected 4 hours after drinking a cup of coffee (instant or brewed with approximately 100 mg of caffeine per cup) and stored at −80° C. They were diluted 10 times with sodium phosphate buffer (620 mosm, pH 7.50) and were subsequently diluted with water to give concentrations of AAMU and 1X no higher than 3×10^−6 M in the ELISA. All the pipettings were done with an eight-channel pipette, except those of the antibody and sample solutions. Starting with the last well, 100 μL of a carbonate buffer (100 mM, pH 9.6) containing 2.5 μg mL-^1 antibodies was pipetted. After 90 min. at room temperature, the wells were washed three times with 100 μL of TPB: isotonic sodium phosphate buffer (310 mosm, pH 7.50) containing 0.05% Tween™ 20.
(§4) After the initial wash, unoccupied sites were blocked by incubation for 90 min. at room temperature with 100 μL TBP containing 3% BSA. The wells were washed four times with 100 μL TPB. This was followed by additions of 50 μL of 12 mg mL^−1 AAMU-HRP or 1X-HRP conjugate in 2×TPB containing 2% BSA, and 50 μL of either water, standard (13 standards; AAMU or 1X, 2×10^−4 to 2×10^−8 M) or sample in duplicate. The microplate was gently shaken with an orbital shaker at room temperature for 3-4 hours. The wells were washed three times with 100 μL with TPB containing 1% BSA and three times with water containing 0.05% Tween™ 20. To the washed plate was added 150 μL of a substrate buffer composed of citric acid (25 mM) and sodium phosphate dibasic buffer (50 mM, pH 5.0) containing 0.06% hydrogen peroxide and 0.04% o-phenylenediamine hydrochloride. After 20 min. at room temperature with shaking, the reaction was stopped with 50 μL of 2.5 N HCl.
(§5) The cross reactivities of AAMU-Ab and 1X-Ab were tested using a wide variety of caffeine metabolites and structural analogs (Table 2 below).

AAMU-Ab = assay: Competitive antigen ELISA, cross-reactivity of AAMU-Ab; type: binding, rabbit; details: for % Cross-Reaction AAMU-Ab: competitive antigen ELISA, 0 = absence of inhibition or inhibition no higher than 40% at highest concentration tested (5×10^−3 M)
Protocol: as §1, §2, §3, §4, §5

Row | Compound | % Cross-Reaction 1X-Ab (1X-Ab) | % Cross-Reaction AAMU-Ab (AAMU-Ab) | IC50 (AAMU-Ab; AAMU-Ab, AAMU-HRP conjugate, read-out: concentration required for 50% inhibition in the competitive antigen ELISA) | IC50 (1X-Ab; 1X-Ab, 1X-HRP conjugate, read-out: concentration required for 50% inhibition in the competitive antigen ELISA)
1 | CC(=O)Nc1c(N)[nH]c(=O)[nH]c1=O [5-Acetamino-6-amino-uracil] | 0% | 0.6% |  | 
2 | Nc1nc2nc[nH]c2c(=O)[nH]1 [Guanine] | 0% | 0% |  | 
3 | Cn1c(=O)[nH]c(=O)c2[nH]cnc21 [3-Methyl Xanthine] | 0% | 0% |  | 
4 | CC(=O)Nc1c(N)n(C)c(=O)[nH]c1=O [5-Acetamino-6-amino-1-methyluracil] | 0% | 100% | 1.5 µM | 
5 | Cn1cnc2c1c(=O)[nH]c(=O)n2C [3,7-Dimethyl Xanthine (Theobromine), 3,7-Dimethyl Xanthine] | 0% | 0% |  | 
6 | O=c1[nH]cnc2nc[nH]c12 [Hypoxanthine] | 0% | 0% |  | 
7 | Cn1cnc2[nH]c(=O)[nH]c(=O)c21 [7-Methyl Xanthine] | 0% | 0% |  | 
8 | O=c1[nH]c(=O)c2[nH]c(=O)[nH]c2[nH]1 [Uric acid] | 0% | 0% |  | 
9 | Cn1c(=O)c2[nH]cnc2n(C)c1=O [1,3-Dimethyl Xanthine (Theophylline), 1,3-Dimethyl Xanthine] | 0.2% | 0% |  | 
10 | CC(=O)Nc1c(N)n(C)c(=O)n(C)c1=O [5-Acetamino-6-amino-1,3-dimethyluracil] | 0% | 0% |  | 
11 | Cn1c(=O)[nH]c2ncn(C)c2c1=O [1,7-Dimethyl Xanthine (Paraxanthine), 1,7-Dimethyl Xanthine] | 0.5% | 0% |  | 
12 | Cn1c(=O)[nH]c2[nH]c(=O)[nH]c2c1=O [1-Methyluric acid] | 11% | 0% |  | 
13 | O=c1[nH]c(=O)c2[nH]cnc2[nH]1 [Xanthine] | 0% | 0^a % |  | 
14 | Cc1nc2[nH]c(=O)[nH]c(=O)c2[nH]1 [8-Methyl Xanthine] | 0% | 0% |  | 
15 | Cn1c(=O)c2c(ncn2C)n(C)c1=O [1,3,7-Trimethyl Xanthine (Caffeine), 1,3,7-Trimethyl Xanthine] | 0% | 0% |  | 
16 | O=c1cc[nH]c(=O)[nH]1 [Uracil] | 0% | 0% |  | 
17 | Cn1c(=O)[nH]c2nc[nH]c2c1=O [1-Methyl Xanthine (1X), 1-Methyl Xanthine] | 100% | 0% |  | 10 µM
18 | Cn1c(=O)[nH]c2[nH]c(=O)n(C)c2c1=O [1,7-Dimethyluric acid] | 0% | 0% |  | 
